The source of these data is patent US12338237B2, “Derivatives having 1,2,3,4-tetrahydronaphthalene moiety or pharmaceutically acceptable salt thereof and pharmaceutical compositions comprising the same” (YUHAN CORPORATION, priority 2019, dated 2025).

Assay [1] addresses glucosylceramide synthase (GCS) (Homo sapiens (Human), UniProt Q16739). Nature of the assay: Evaluation of inhibitory activities against GCS (enzyme reaction with A549 cell lysate, NBD C6-ceramide, HPLC fluorescence). In kind it is biochemical. The conditions noted are these: GCS activity in A549 cell lysate, 37° C. for 90 minutes. Put shortly: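 Lysate of A549 cells in 50 mM HEPES pH 7.3 incubated with test compound and NBD C6-ceramide at 37 °C for 90 min; lipids extracted with chloroform/methanol and GlcCer and ceramide peaks quantified by HPLC fluorescence. Activity from GlcCer area fraction, normalised between DMSO and ibiglustat controls.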

Assay [2] concerns GM1 production. The experiment in a line: cells. The class given is cell-based.

The term IC50 denotes the concentration at which inhibition is half-maximal.

Where two headings read alike, the source gives them in different places.

Chain of glucosylceramide synthase (GCS) (Q16739 whole entry, looked up): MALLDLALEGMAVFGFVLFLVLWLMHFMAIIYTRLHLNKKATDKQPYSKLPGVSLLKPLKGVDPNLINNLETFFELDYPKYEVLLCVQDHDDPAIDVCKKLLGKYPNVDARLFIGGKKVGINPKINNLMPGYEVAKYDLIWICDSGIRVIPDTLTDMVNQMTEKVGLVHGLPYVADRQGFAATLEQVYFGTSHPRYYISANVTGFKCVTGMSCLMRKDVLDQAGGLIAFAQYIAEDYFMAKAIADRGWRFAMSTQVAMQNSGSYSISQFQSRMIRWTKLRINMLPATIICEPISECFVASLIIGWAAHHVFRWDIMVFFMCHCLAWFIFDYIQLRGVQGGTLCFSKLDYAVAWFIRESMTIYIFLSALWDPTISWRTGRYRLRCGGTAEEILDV

Turning to `CC(C)Oc1ccc(-c2cc3c(cc2F)C(NC(=O)O[C@@H]2CN4CCC2CC4)C(C)(C)CC3)cc1` (stereo partly drawn) [Example 232, (S)-quinuclidin-3-yl (7-fluoro-6-(4-isopropoxyphenyl)-2,2-dimethyl-1,2,3,4-tetrahydronaphthalen-1-yl)carbamate], the IC50 turned out to be 0.29 nM in assay [1] and 2.7 nM in assay [2] (Homo sapiens, Jurkat, 72 h).
In the same order, the values of `COc1ccc(-c2cc3c(cc2OC)C(NC(=O)O[C@@H]2CN4CCC2CC4)C(C)(C)CC3)cc1F` (stereo partly drawn) [Example 233, (S)-quinuclidin-3-yl (6-(3-fluoro-4-methoxyphenyl)-7-methoxy-2,2-dimethyl-1,2,3,4-tetrahydronaphthalen-1-yl)carbamate] are 0.65 nM and 21.7 nM.
In the case of `CCCOc1c(C)cc(-c2cc3c(cc2OC)C(NC(=O)O[C@@H]2CN4CCC2CC4)C(C)(C)CC3)cc1C` (stereo partly drawn) [Example 234, (S)-quinuclidin-3-yl (6-(3,5-dimethyl-4-propoxyphenyl)-7-methoxy-2,2-dimethyl-1,2,3,4-tetrahydronaphthalen-1-yl)carbamate], the IC50 in assay [1] was 1.45 nM; in assay [2] (Homo sapiens, Jurkat, 72 h) it was 14.9 nM.
In the case of `CCCc1ccc(-c2cc3c(cc2OC)C(NC(=O)O[C@@H]2CN4CCC2CC4)C(C)(C)CC3)cc1` (stereo partly drawn) [Example 235, (S)-quinuclidin-3-yl (7-methoxy-2,2-dimethyl-6-(4-propylphenyl)-1,2,3,4-tetrahydronaphthalen-1-yl)carbamate], the IC50 in assay [1] is 0.19 nM; in assay [2] (Homo sapiens, Jurkat, 72 h), 3.2 nM.
With `COc1cc2c(cc1-c1ccc(CC(C)C)cc1)CCC(C)(C)C2NC(=O)O[C@@H]1CN2CCC1CC2` (stereo partly drawn) [Example 236, (S)-quinuclidin-3-yl (6-(4-isobutylphenyl)-7-methoxy-2,2-dimethyl-1,2,3,4-tetrahydronaphthalen-1-yl)carbamate], the half-maximal inhibitory concentration (IC50) in assay [1] was determined as 0.53 nM; in assay [2] (Homo sapiens, Jurkat, 72 h), 3.2 nM.
Turning to `COc1cc2c(cc1-c1ccnc(OC(C)(C)C)c1)CCC(C)(C)C2NC(=O)O[C@@H]1CN2CCC1CC2` (stereo partly drawn) [Example 237, (S)-quinuclidin-3-yl (6-(2-(tert-butoxy)pyridin-4-yl)-7-methoxy-2,2-dimethyl-1,2,3,4-tetrahydronaphthalen-1-yl)carbamate], the IC50 in assay [1] amounted to 1.84 nM; in assay [2] (Homo sapiens, Jurkat, 72 h) it was 18.8 nM.
In the same order, the values of `COc1cc2c(cc1-c1ccc(OC(C)C)cc1)CCC(C)(C)C2NC(=O)O[C@@H]1CN2CCC1CC2` (stereo partly drawn) [Example 238, (S)-quinuclidin-3-yl (6-(4-isopropoxyphenyl)-7-methoxy-2,2-dimethyl-1,2,3,4-tetrahydronaphthalen-1-yl)carbamate] are 0.55 nM and 3.5 nM.
On to “(S)-quinuclidin-3-yl (2,2-dimethyl-7-(2-(p-tolyl)-1,2,3,4-tetrahydronaphthalen-1-yl)carbamate [Example 163]”, for which the IC50 in assay [1] is 15.3 nM; in assay [2] (read-out: IC50), 55.1 nM.
“(S)-quinuclidin-3-yl (7-(3-(chlorophenyl)-1,2,3,4-tetrahydronaphthalen-1-yl)carbamate [Example 59]”: the half-inhibitory concentration (IC50) was 18.9 nM in assay [1] and 153 nM in assay [2] (read-out: IC50).
